Assay results from patent publication US20210093558A1 (Bryn Pharma, LLC, priority 2018, published 2021).

Test system: histamine induced nasal congestion

NCCc1c[nH]cn1 [Histamine, histamine]
induction of nasal congestion (5% histamine aerosol for 5 minutes): induced congestion in all animals to varying degrees | nasal congestion and flow restriction pressure (5 and 10 minutes post-histamine exposure, Group 1): progressive increase in nasal congestion and flow restriction pressure | histamine induced congestion without epinephrine (pilot study, 60, 80 and 100 minute time points): remains elevated at significant levels
